Results on 1 sequence are retold here after patent publication US9315544B2, “Method of treating eosinophilia by administering an immunomodulating peptide” (National Tsing Hua University, priority 2012, dated 2016).

The test system of one experiment is IL-5. Nature of the experiment: Cytokine ELISA of lung protein extract (IL-5). In kind it is in vivo, BALB/c mouse. The following applies: mIT+eIN, eIN+mIT+eIN and eIN+mIT groups. The text has this: FIG. 4 illustrates experimental design. All groups except control group were immunized with mite crude extract allergen on days 1 and 8, then mite crude extract allergen intratracheally on day 15 in all mite treated group, BALB/c mouse were divided into six groups (1) control group (PBS), (2) mites delivered intratracheally (mIT, mite on day 15) alone, (3) CMP intranasal (eIN, CMP on days 1 to 22) alone, (4) preventive-treatment group (eIN+mIT, CMP on days 1 to 14, mite on day 15) (5) therapy-treatment group (mIT+eIN, mite on day 15, CMP on days 15 to 22), and (6) preventive- and therapeutic-treatment group (eIN+mIT+eIN, CMP on days 1 to 22, mite on day 15).
FIG. 9 illustrates inhibitory effect of CMP on lung protein extract. Lung protein extracts from different groups of mouse were assayed for the indicated cytokines. Data represent one of three independent experiments. Levels of CCL-11, IL-5, IL-13 and IL-17A/F levels in lung protein extracts from mouse from treatment groups were measured by Enzyme-linked immunosorbent assay (ELISA). Each result was expressed as the mean±S.D., n=4. **, P<0.01, ***, P<0.001. […]
Levels of cytokines from lung protein extract were measured by ELISA. […] The microplates were read at 450 nm with an ELISA reader (Thermo Labsystems, Waltham, Mass., USA). […]
A general note: An ELISA detects its analyte on a solid surface through an enzyme-linked reagent.

Another experiment deals with human lung cancer A549. Nature of the experiment: Transwell migration assay, A549. Type of experiment: cell-based. Particulars: 5 μM CMP pretreatment 30 min, 18 hours. The procedure: FIG. 10 illustrates Tumor migration inhibition by CMP. A549, H460 and mouse colon cancer cells were incubated with CMP at 37° C. for 30 min before adding to the top chamber of transwell membranes in 24-well dishes at a density of 2×10^4 cells/well. Data represented the mean±S.E. of triplicate samples from a representative experiment. The experiment was repeated at least three times with similar results
Cancer cell inhibition by CMP was performed in a 24-well Transwell chamber consisting of a cell culture insert (6.4 mm diameter, 8-1 μm pore polyethylene tetraphtalate membrane, [Becton Dickinson]) set in each well of a 24-well companion plate (Becton Dickinson). Briefly, 3×10^4 cancer cells were suspended and pretreated with 5 and 12.5 μM CMP for 30 min in a total volume of 200 μL. Cell suspensions were inoculated into the upper chamber of an insert, 5% fetal bovine serum (FBS) in medium as a chemoattractant was added to the plate well in the bottom chamber, and incubated for 18 hours in a humidified incubator at 37° C. with 5% CO2. The non-migratory cells on the upper membrane surface were removed with a cotton swab, and the migratory cells attached to the lower membrane surface were fixed with 4% paraformaldehyde and stained with 0.2% crystal violet. The number of migrated cells was counted in four randomly selected high power fields under microscope. […]

As to NYRWRCKNQN (CMP), the “IL-5 levels in lung protein extract compared with mIT group” value in the experiment with IL-5 is “lower”. In addition, the “decrease of migration activity” value in the experiment with human lung cancer A549 was determined as 60%.
